{
  "source": "patent US20240325553A1",
  "about": "“CYTOSTATIC CONJUGATES WITH INTEGRIN LIGANDS” (priority 2018, published 2024)",
  "key": {"[1]": {"test": "Stability in human plasma", "type": "in vitro ADME", "settings": "37° C.", "experimental": "1 mg of the test compound was solved in 0.5 ml acetonitrile/dimethylsulfoxide 1:1. For complete dissolution the HPLC vial was shaken and sonicated. While vortexing 20 μl of this solution were added to 1 ml 37° C. warm plasma. After 0.17, 0.5, 1, 1.5, 2 and 4 hours the enzymatic reaction was stopped by adding 100 μl of the compound plasma solution to a vial containing 300 μl acetonitrile/buffer pH3 (80:20) at RT. The mixture was centrifuged at 5000 rpm for 10 minutes. The supernatant was analyzed by HPLC to determine the amount of the test compound and up to two byproducts. t(0) values result from a processed sample immediately taken after vortexing with plasma at RT. The peak areas (in percentage) were used for quantification."}, "NCI-H1975": {"system": "NCI-H1975", "test": "Cytotoxicity in vitro against NCI-H1975", "type": "cell-based", "source_text": "(§1) The cytotoxic activity of 7-Ethyl camptothecin is not negatively affected when tumor cells NCI-H1975 was transfected with drug transporters p-Glycoprotein (P-gp) and breast cancer resistant protein (BCRP) which is in strong contrast to SN38."}, "BCRP": {"system": "BCRP", "test": "Cytotoxicity in vitro against NCI-H1975 transfected with BCRP", "type": "cell-based", "settings": "human", "source_text": "as §1"}, "[2]": {"test": "Pharmacokinetics: tumor and plasma levels in 786-O tumor bearing mice", "type": "in vivo, NMRI nu/nu mice", "settings": "for Tumor/Plasma enrichment factor (ratio/ratio): relative to direct administration of 7-ethyl camptothecin", "experimental": "(§2) Tumor and plasma samples were collected at different time points and the levels of intact conjugate and of the toxophore 7-ethyl-camptothecin cleaved from the conjugate were determined.\nFor comparison, 1 mg/kg of 7-ethyl camptothecin was dissolved in a mixture of 5% aqueous dextrose/solutol/DMSO 85/10/5 and administered iv to female. 786-O tumor bearing NMRI nu/nu mice. Again tumor and plasma samples were collected at different time points and the levels of 7-ethyl-camptothecin were determined.\nas §2"}, "[3]": {"test": "Caco-2 flux assay for cellular permeability", "type": "in vitro ADME", "settings": "human", "experimental": "(§3) The cell permeability of a substance can be investigated by means of in vitro testing in a flux assay using Caco-2 cells [M. D. Troutman and D. R. Thakker, Pharm. Res. 20 (8), 1210-1224 (2003)]. For this purpose. the cells were cultured for 15-16 days on 24-well filter plates. […] The samples were separated by HPLC (Agilent 1200. Böblingen. Germany) using reverse phase columns. […] 1716-1725 (2003)]. A substance was classified as actively transported when the ratio of Papp (B-A) to Papp (A-B) (efflux ratio) was >2 or <0.5."}, "P-gp (ABCB1)": {"biological_target": "P-gp (ABCB1) (Homo sapiens, UniProt P08183)", "sequence (P08183 whole entry)": "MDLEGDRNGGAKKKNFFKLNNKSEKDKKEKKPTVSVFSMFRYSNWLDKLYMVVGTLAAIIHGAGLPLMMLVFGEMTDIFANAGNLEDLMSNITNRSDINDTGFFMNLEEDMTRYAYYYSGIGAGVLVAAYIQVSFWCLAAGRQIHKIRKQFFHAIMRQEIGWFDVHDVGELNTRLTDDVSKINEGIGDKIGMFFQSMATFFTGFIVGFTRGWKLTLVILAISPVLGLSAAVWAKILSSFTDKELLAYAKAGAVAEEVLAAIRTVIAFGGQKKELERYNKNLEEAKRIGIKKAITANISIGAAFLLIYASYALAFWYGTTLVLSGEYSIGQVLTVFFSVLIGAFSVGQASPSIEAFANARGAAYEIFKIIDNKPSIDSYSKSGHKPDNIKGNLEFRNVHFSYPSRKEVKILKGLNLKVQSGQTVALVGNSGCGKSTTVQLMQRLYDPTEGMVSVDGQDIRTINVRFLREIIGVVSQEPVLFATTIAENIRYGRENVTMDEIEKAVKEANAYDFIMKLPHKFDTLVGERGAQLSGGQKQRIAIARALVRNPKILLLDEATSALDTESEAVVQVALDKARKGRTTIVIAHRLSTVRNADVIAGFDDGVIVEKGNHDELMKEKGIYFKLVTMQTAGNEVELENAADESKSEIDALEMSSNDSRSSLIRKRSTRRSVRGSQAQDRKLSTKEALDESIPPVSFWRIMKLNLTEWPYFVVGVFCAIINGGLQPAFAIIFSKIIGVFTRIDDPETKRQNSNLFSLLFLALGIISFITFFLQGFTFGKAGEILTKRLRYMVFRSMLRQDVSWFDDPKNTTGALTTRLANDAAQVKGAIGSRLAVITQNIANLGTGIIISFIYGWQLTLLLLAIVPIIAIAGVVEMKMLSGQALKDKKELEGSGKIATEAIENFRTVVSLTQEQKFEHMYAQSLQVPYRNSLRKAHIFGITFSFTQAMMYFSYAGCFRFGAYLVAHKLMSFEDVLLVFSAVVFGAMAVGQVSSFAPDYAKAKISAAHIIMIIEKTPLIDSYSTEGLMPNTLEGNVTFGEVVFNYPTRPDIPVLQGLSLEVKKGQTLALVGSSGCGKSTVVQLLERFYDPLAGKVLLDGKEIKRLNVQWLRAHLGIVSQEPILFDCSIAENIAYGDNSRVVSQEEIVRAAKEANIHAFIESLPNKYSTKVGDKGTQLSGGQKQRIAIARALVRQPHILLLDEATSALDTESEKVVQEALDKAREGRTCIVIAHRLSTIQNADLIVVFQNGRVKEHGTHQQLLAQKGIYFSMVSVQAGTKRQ", "test": "in vitro", "experimental": "Many tumor cells express transporter proteins for drugs, and this frequently accompanies the development of resistance towards cytostatics.\nThe substrate properties of a substance for P-gp (ABCB1) were determined by means of a flux assay using LLC-PK1 cells which overexpress P-gp (L-MDR1 cells) [A. H. Schinkel et al., J. Clin. Invest. 96. 1698-1705 (1995)]. For this purpose. the LLC-PK1 cells or L-MDR1 cells were cultured on 96-well filter plates for 3-4 days. For determination of the permeation, the respective test substance, alone or in the presence of an inhibitor (such as ivermectin or verapamil, for example), was applied in a HEPES buffer to the cells either apically (A) or basally (B) and incubated for 2 hours. After ([…] and after 2 hours, samples were taken from the cis and trans compartments. The samples were separated by HPLC using reverse phase columns. The HPLC system was coupled via a Turbo Ion Spray Interface to a Triple Quadropol mass spectrometer API 3000 (Applied Biosystems Applera, Darmstadt, Germany). The permeability was evaluated on the basis of a Papp value, which was calculated using the formula published by Schwab et al. [D. Schwab et al. . . . J. Med. Chem. 46, 1716-1725 (2003)]. A substance was classified as P-gp substrate when the efflux ratio of Papp (B-A) to Papp (A-B) was >2."}, "P-gp": {"system": "P-gp", "test": "Cytotoxicity in vitro against NCI-H1975 transfected with P-gp", "type": "cell-based", "settings": "human", "source_text": "as §1"}, "HT29 cell line": {"system": "HT29 cell line", "test": "Cytotoxicity in vitro (MTT) in the presence and absence of elastase, HT29", "type": "cell-based", "settings": "72 h", "experimental": "(§4) Cultivation of cells was performed according to standard procedures with the media recommended by the provider. The cells in a total volume of 100 μL were seeded in a 96-well plate with white bottom (#3610). After a 24 h incubation period at 37° C. and 5% CO2, the medium was changed by adding 90 μL fresh medium. The treatment starts by adding the test compound to the cells in 10 μl of culture medium. Concentrations from 10^−5 M to 10^−13 M in triplicates were chosen followed by an incubation at 37° C. and 5% carbon dioxide. One set of samples were only treated with the test compound whereas to an otherwise identically treated second set of samples also 10 nM elastase was pipetted. After 72 h. the proliferation is detected using the MTT assay (ATCC). At the end of the incubation period the MTT reagent is added to all samples for 4 h, followed by lysis of the cells overnight by addition of the detergent. The dye formed was detected at 570 nm. The proliferation of cells which were not treated with test substance but were otherwise identically treated was defined as the 100% value. (FIG. 1 and table 4)."}, "αvβ3 receptor": {"biological_target": "T1, αvβ3 receptor (Homo sapiens, UniProt P05106+P06756)", "T1 construct": "αvβ3 from human A375 cells was purified analogously to a procedure described by Wong et al; endogenous in cells; host or cells: human A375 cells (receptor purified from the cells)", "T1 sequence (P06756 31-889 limits assumed)": "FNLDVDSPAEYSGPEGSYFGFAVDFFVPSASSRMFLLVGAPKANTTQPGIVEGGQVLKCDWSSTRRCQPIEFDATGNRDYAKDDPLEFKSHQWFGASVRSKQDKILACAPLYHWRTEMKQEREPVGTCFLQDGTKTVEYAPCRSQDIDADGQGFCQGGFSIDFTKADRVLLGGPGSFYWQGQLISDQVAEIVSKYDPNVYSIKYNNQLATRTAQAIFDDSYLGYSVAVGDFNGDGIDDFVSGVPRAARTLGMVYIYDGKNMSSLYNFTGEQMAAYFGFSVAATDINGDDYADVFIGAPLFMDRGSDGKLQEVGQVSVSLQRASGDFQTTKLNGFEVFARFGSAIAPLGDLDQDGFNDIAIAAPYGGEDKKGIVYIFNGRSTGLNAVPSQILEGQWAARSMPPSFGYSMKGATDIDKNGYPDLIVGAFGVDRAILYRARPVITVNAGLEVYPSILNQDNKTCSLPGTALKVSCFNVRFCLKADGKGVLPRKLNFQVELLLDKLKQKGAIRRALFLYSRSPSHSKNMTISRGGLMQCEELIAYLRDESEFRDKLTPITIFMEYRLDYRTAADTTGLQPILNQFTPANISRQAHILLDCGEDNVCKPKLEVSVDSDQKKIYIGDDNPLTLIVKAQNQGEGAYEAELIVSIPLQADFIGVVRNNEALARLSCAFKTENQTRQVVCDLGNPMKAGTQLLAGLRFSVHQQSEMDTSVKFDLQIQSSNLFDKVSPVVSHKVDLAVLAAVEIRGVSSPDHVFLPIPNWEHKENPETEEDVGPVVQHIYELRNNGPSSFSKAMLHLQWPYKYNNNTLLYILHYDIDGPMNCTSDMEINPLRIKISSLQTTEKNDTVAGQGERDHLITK", "T1 sequence (P06756 891-1048 partner limits assumed)": "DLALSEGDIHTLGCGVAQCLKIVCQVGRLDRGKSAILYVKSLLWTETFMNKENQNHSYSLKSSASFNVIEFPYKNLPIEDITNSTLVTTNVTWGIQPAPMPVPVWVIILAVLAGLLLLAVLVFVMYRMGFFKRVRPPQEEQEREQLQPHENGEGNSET", "T1 sequence (P05106 27-788)": "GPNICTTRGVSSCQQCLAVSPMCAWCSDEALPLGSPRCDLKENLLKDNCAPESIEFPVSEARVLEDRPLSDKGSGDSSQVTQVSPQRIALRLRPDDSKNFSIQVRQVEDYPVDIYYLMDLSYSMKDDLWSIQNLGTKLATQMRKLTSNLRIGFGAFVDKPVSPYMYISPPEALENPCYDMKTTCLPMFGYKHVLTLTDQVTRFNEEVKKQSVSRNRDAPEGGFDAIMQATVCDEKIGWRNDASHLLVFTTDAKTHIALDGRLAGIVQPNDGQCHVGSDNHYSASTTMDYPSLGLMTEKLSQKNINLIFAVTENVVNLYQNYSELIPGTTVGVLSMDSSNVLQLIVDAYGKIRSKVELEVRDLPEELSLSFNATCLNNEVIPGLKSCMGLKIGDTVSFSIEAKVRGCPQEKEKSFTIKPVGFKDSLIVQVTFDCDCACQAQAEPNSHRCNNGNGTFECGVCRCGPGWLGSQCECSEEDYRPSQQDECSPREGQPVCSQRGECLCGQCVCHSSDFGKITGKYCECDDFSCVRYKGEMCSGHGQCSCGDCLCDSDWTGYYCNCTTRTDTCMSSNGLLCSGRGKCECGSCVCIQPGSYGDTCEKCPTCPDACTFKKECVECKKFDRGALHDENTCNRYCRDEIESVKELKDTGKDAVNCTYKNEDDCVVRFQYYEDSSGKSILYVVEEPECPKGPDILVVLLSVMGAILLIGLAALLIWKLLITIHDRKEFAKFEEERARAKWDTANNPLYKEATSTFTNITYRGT", "test": "αvβ3 binding test (echistatin SPA)", "experimental": "αvβ3 from human A375 cells was purified analogously to a procedure described by Wong et al. in Molecular Pharmacology 50, 529-537 (1996). In each case, 10 μL of αvβ3 (5 ng) in TBS PH 7.6, 2 mM CaCl2. 1 mM MgCl2. 1% n-octylglucopyranoside (Sigma): 10 μL of test substance in TBS pH 7.6. 0.1% DMSO and 45 μL of TBS pH 7.6. 2 mM CaCl2, 1 mM MgCl2, 1 mM MnCl2 were incubated at room temperature for 1 h. In each case, 25 μL of WGA SPA beads (Amersham, 4 mg/ml) and 10 μL of echistatin (0.1 μCi, Amersham, chloramine-T labelled) were then added. After 16 h at room temperature, the samples were measured in a scintillation measuring apparatus (Wallac 1450)."}, "786-O cell line": {"system": "786-O cell line", "test": "Cytotoxicity in vitro (MTT) in the presence and absence of elastase, 786-O", "type": "cell-based", "settings": "72 h, MTT", "experimental": "as §4"}, "NCI-H1975-BCRP": {"system": "NCI-H1975-BCRP", "test": "Cytotoxicity in vitro against NCI-H1975 transfected with BCRP", "type": "cell-based", "source_text": "as §1"}, "Caco-2 cells": {"system": "Caco-2 cells", "test": "Caco-2 flux assay for cellular permeability", "type": "in vitro ADME", "experimental": "as §3"}, "NCI-H1975-P-gp": {"system": "NCI-H1975-P-gp", "test": "Cytotoxicity in vitro against NCI-H1975 transfected with P-gp", "type": "cell-based", "source_text": "as §1"}, "[4]": {"settings": "Caco-2, Papp (B-A) to Papp (A-B)"}},
  "note": "pIC50: −log10 of the molar value. Read-outs that look alike come from different tables or passages of the source.",
  "data": [
    {"molecule": "CCc1c2c(nc3ccccc13)-c1cc3c(c(=O)n1C2)COC(=O)[C@]3(O)CC", "note": "[7-Ethyl-camptothecin, (4S)-4,11-diethyl-4-hydroxy-1H-pyrano[3′,4′:6,7]indolizino[1,2-b]quinoline-3,14(4 H,12H)-dione]", "values": [
      {"measurement": "stable in human plasma for", "setting": "[1]", "value": "at least 4 hours"},
      {"measurement": "pIC50", "setting": "NCI-H1975; Homo sapiens, NCI-H1975", "value": 7.72},
      {"measurement": "pIC50", "setting": "BCRP", "value": 7.57},
      {"measurement": "Kp", "setting": "[2]; mouse, tumor and plasma, 1 mg/kg, iv, female 786-O tumor bearing NMRI nu/nu mice, read-out: Tumor/Plasma ratio of 7-ethyl camptothecin", "value": 0.6},
      {"measurement": "Tumor/Plasma enrichment factor (ratio/ratio)", "setting": "[2]", "value": 1},
      {"measurement": "Papp A→B at 2 h", "setting": "[3]; Caco-2, 2 hours incubation", "value": 17.1, "unit": "×10⁻⁶ cm/s"},
      {"measurement": "efflux ratio at 2 h", "setting": "[3]; [4]", "value": 1},
      {"measurement": "Papp A→B at 2 h", "setting": "P-gp (ABCB1); pig, LLC-PK1", "value": 19.6, "unit": "×10⁻⁶ cm/s"},
      {"measurement": "efflux ratio at 2 h", "setting": "P-gp (ABCB1); pig, LLC-PK1", "value": 0.6},
      {"measurement": "pIC50", "setting": "P-gp", "value": 7.47}
    ]},
    {"molecule": "CCCNC(=O)Nc1cccc(S(=O)(=O)Nc2cccc([C@H](CC(=O)[O-])NC(=O)Nc3ccc(NC(=O)NCCOCCOCCOCCC(=O)N[C@@H](CC(=O)[O-])C(=O)N4CCC[C@H]4C(=O)N[C@H](C(=O)O[C@]4(CC)C(=O)OCc5c4cc4n(c5=O)Cc5c-4nc4ccccc4c5CC)C(C)C)cc3)c2)c1.[Na+].[Na+]", "note": "[Example 2, disodium (4S)-4,11-diethyl-3,14-dioxo-3,4,12,14-tetrahydro-1H-pyrano[3′,4′: 6,7]indolizino [1,2-b]quinolin-4-yl 1-{(2S)-2-(carboxylatomethyl)-17-[4-({[(1S)-2-carboxylato-1-{3-[({3-[(propyl-carbamoyl)amino]phenyl}sulfonyl)amino]phenyl}ethyl]carbamoyl}amino)anilino]-4,17-dioxo-7,10,13-trioxa-3,16-diazaheptadecan-1-oyl}-L-prolyl-L-valinate]", "values": [
      {"measurement": "pIC50", "setting": "HT29 cell line; 10 nM elastase, read-out: HT29 cell line IC50 w elastase", "value": 7.49},
      {"measurement": "pIC50", "setting": "HT29 cell line; without elastase, read-out: HT29 cell line IC50 w/o elastase", "value": "< 6.30"},
      {"measurement": "pIC50", "setting": "αvβ3 receptor", "value": 6.15},
      {"measurement": "pIC50", "setting": "786-O cell line; 10 nM elastase, read-out: 786-O cell line IC50 w elastase", "value": 9.77},
      {"measurement": "pIC50", "setting": "786-O cell line; without elastase, read-out: 786-O cell line IC50 w/o elastase", "value": 6.57},
      {"measurement": "Tumor/Plasma enrichment factor (ratio/ratio)", "setting": "[2]", "value": 2}
    ]},
    {"molecule": "CCc1c2c(nc3ccc(O)cc13)-c1cc3c(c(=O)n1C2)COC(=O)[C@]3(O)CC", "note": "[SN38]", "values": [
      {"measurement": "pIC50", "setting": "NCI-H1975", "value": 7.35},
      {"measurement": "pIC50", "setting": "NCI-H1975-BCRP", "value": 6.29},
      {"measurement": "permeability Papp A->B", "setting": "Caco-2 cells; Caco-2, 2 hours incubation", "value": 0.8, "unit": "×10⁻⁶ cm/s"},
      {"measurement": "efflux ratio", "setting": "Caco-2 cells; [4]", "value": 36},
      {"measurement": "efflux ratio", "setting": "Caco-2 cells; Caco-2, new data for SN38", "value": 9},
      {"measurement": "permeability Papp A->B", "setting": "Caco-2 cells; Caco-2, new data for SN38", "value": 2, "unit": "×10⁻⁶ cm/s"},
      {"measurement": "permeability Papp A->B", "setting": "P-gp (ABCB1); L-MDR1 cells (LLC-PK1 overexpressing P-gp)", "value": 1, "unit": "×10⁻⁶ cm/s"},
      {"measurement": "efflux ratio", "setting": "P-gp (ABCB1); L-MDR1 cells, Papp (B-A) to Papp (A-B)", "value": 16},
      {"measurement": "pIC50", "setting": "NCI-H1975-P-gp", "value": 6.85}
    ]},
    {"molecule": "CC[C@@]1(O)C(=O)OCc2c1cc1n(c2=O)Cc2cc3ccccc3nc2-1", "note": "[camptothecin]", "values": [
      {"measurement": "extent of degradation in human plasma", "setting": "[1]; 4 hours", "value": "about 50%"}
    ]}
  ]
}
